In patent publication US20240158446A1, “CYCLIC COMPOUND HAVING SELECTIVE INHIBITORY ACTION ON KRAS OVER HRAS AND NRAS” (CHUGAI SEIYAKU KABUSHIKI KAISHA, priority 2021, published 2024):
Where two headings read alike, the source gives them in different places. *1 amine or outer side, *2 acyl side, *3 side chain or, on linkers, in order; H or OH if unused. Where a SMILES comes first, the peptide text is derived from it. Bridges are numbered along the chain shown (N, C = ends). [ ]: non-standard residue; d: D form. The star is where a group is joined. hPhe(3-Cl-4-CF3) = N[C@@H](CCc1ccc(C(F)(F)F)c(Cl)c1)C(=O)O; NPrPhe(4-CF3) = CCCN[C@@H](Cc1ccc(C(F)(F)F)cc1)C(=O)O; NEtPhe(4-CF3) = CCN[C@@H](Cc1ccc(C(F)(F)F)cc1)C(=O)O; NEtPhe(4-Me) = CCN[C@@H](Cc1ccc(C)cc1)C(=O)O; NMePhe(4-Me) = CN[C@@H](Cc1ccc(C)cc1)C(=O)O; X7 = CCN([C@H](C(=O)[*:2])C1CCCC1)[*:1]; NMeGly(cPent) = CN[C@H](C(=O)O)C1CCCC1; Pro(4S-Me) = C[C@@H]1CN[C@H](C(=O)O)C1; NMeD = CN[C@@H](CC(=O)O)C(=O)O; NMeL = CN[C@@H](CC(C)C)C(=O)O; Morpholide = C1CN(*)CCO1; NMeA = CN[C@@H](C)C(=O)O; Ac5c = NC1(C(=O)O)CCCC1; Aze = O=C(O)[C@@H]1CCN1; NEtG = CCNCC(=O)O; Sar = CNCC(=O)O

Tests used:
[1] = biological target: GDP-bound KRAS wild-type protein (Homo sapiens, UniProt P01116); assay: Binding to KRAS by surface plasmon resonance (SPR), Single Cycle Kinetics; settings: GDP-bound KRAS wild-type protein, read-out: KRAS KD
[2] = biological target: GDP-bound HRAS wild-type protein (Homo sapiens, UniProt P01112); assay: Binding to HRAS by surface plasmon resonance (SPR), Single Cycle Kinetics; settings: for HRAS/KRAS (ratio of KD value for HRAS to KD value for KRAS): SPR, GDP-bound HRAS wild-type protein vs GDP-bound KRAS wild-type protein
[3] = biological target: GDP-bound NRAS wild-type protein (Homo sapiens, UniProt P01111); assay: Binding to NRAS by surface plasmon resonance (SPR), Single Cycle Kinetics; settings: SPR, GDP-bound NRAS wild-type protein vs GDP-bound KRAS wild-type protein
[4] = SPR Single Cycle Kinetics, 1:1 binding model
[5] = SPR, Single Cycle Kinetics, 1:1 binding model

GDP-bound NRAS wild-type protein, sequence (P01111 whole entry): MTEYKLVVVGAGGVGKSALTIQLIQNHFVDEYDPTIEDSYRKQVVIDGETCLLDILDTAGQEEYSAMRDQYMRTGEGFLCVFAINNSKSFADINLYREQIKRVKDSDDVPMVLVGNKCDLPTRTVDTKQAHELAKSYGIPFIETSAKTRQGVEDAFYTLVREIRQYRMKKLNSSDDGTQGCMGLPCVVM
GDP-bound KRAS wild-type protein, sequence (P01116 whole entry): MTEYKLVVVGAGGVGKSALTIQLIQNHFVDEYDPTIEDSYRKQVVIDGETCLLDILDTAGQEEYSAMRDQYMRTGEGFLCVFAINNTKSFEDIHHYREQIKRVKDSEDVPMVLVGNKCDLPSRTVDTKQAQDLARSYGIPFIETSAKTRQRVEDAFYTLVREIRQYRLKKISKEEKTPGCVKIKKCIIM
GDP-bound HRAS wild-type protein, sequence (P01112 whole entry): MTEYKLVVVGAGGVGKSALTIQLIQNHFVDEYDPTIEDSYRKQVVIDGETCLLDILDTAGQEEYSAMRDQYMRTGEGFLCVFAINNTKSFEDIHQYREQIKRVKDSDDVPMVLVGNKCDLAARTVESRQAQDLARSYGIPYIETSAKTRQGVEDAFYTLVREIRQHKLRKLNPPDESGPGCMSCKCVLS

| SMILES | Kd [1, 4] | HRAS/KRAS (ratio of KD value for HRAS to KD value for KRAS) [2] | NRAS/KRAS (ratio of KD value for NRAS to KD value for KRAS) [3] | also measured |
| --- | --- | --- | --- | --- |
| CC[C@H](C)[C@@H]1NC(=O)[C@H](CC(C)C)N(C)C(=O)C[C@@H](C(=O)N2CCOCC2)N(C)C(=O)[C@H](C2CCCC2)N(C)C(=O)C2(CCCC2)NC(=O)[C@@H]2CCCN2C(=O)[C@H](CCc2ccc(C(F)(F)F)c(Cl)c2)NC(=O)CN(C)C(=O)[C@H](Cc2ccc(C)cc2)N(C)C(=O)[C@@H]2CCN2C(=O)[C@H](C)N(C)C1=O [PP0001] ([NMeL]I[NMeA][Aze][NMePhe(4-Me)][Sar][hPhe(3-Cl-4-CF3)]P[Ac5c][NMeGly(cPent)][NMeD]-Morpholide; lactam N-11) | 0.14 nM | C (A compound having a KD ratio of 0.1 or more and less than 3 is denoted as C) | C (A compound having a KD ratio of 0.1 or more and less than 3 is denoted as C) | – |
| CC[C@H](C)[C@@H]1NC(=O)[C@H](CC(C)C)N(C)C(=O)C[C@@H](C(=O)N2CCOCC2)N(C)C(=O)[C@H](C2CCCC2)N(C)C(=O)C2(CCCC2)NC(=O)[C@@H]2CCCN2C(=O)[C@H](CCc2ccc(C(F)(F)F)c(Cl)c2)NC(=O)CN(C)C(=O)[C@H](Cc2ccc(C(F)(F)F)cc2)N(CC)C(=O)[C@@H]2CCN2C(=O)[C@H](C)N(C)C1=O [PP0002] ([NMeL]I[NMeA][Aze][NEtPhe(4-CF3)][Sar][hPhe(3-Cl-4-CF3)]P[Ac5c][NMeGly(cPent)][NMeD]-Morpholide; lactam N-11) | 0.18 nM | C (A compound having a KD ratio of 0.1 or more and less than 3 is denoted as C) | C (A compound having a KD ratio of 0.1 or more and less than 3 is denoted as C) | – |
| CC[C@H](C)[C@@H]1NC(=O)[C@H](CC(C)C)N(C)C(=O)C[C@@H](C(=O)N2CCOCC2)N(C)C(=O)[C@H](C2CCCC2)N(C)C(=O)C2(CCCC2)NC(=O)[C@@H]2CCCN2C(=O)[C@H](CCc2ccc(C(F)(F)F)c(Cl)c2)NC(=O)CN(C)C(=O)[C@H](C2CCCC2)N(CC)C(=O)[C@@H]2CCN2C(=O)[C@H](C)N(C)C1=O [PP0003] ([NMeL]I[NMeA][Aze][X7][Sar][hPhe(3-Cl-4-CF3)]P[Ac5c][NMeGly(cPent)][NMeD]-Morpholide; lactam N-11) | 2 nM | C (A compound having a KD ratio of 0.1 or more and less than 3 is denoted as C) | C (A compound having a KD ratio of 0.1 or more and less than 3 is denoted as C) | – |
| CC[C@H](C)[C@@H]1NC(=O)[C@H](CC(C)C)N(C)C(=O)C[C@@H](C(=O)N2CCOCC2)N(C)C(=O)[C@H](C2CCCC2)N(C)C(=O)C2(CCCC2)NC(=O)[C@@H]2CCCN2C(=O)[C@H](CCc2ccc(C(F)(F)F)c(Cl)c2)NC(=O)CN(CC)C(=O)[C@H](Cc2ccc(C)cc2)N(C)C(=O)[C@@H]2CCN2C(=O)[C@H](C)N(C)C1=O [PP0004] ([NMeL]I[NMeA][Aze][NMePhe(4-Me)][NEtG][hPhe(3-Cl-4-CF3)]P[Ac5c][NMeGly(cPent)][NMeD]-Morpholide; lactam N-11) | 2.4 nM | C (A compound having a KD ratio of 0.1 or more and less than 3 is denoted as C) | C (A compound having a KD ratio of 0.1 or more and less than 3 is denoted as C) | – |
| CC[C@H](C)[C@@H]1NC(=O)[C@H](CC(C)C)N(C)C(=O)C[C@@H](C(=O)N2CCOCC2)N(C)C(=O)[C@H](C2CCCC2)N(C)C(=O)C2(CCCC2)NC(=O)[C@@H]2CCCN2C(=O)[C@H](CCc2ccc(C(F)(F)F)c(Cl)c2)NC(=O)CN(CC)C(=O)[C@H](Cc2ccc(C)cc2)N(CC)C(=O)[C@@H]2CCN2C(=O)[C@H](C)N(C)C1=O [PP0006] ([NMeL]I[NMeA][Aze][NEtPhe(4-Me)][NEtG][hPhe(3-Cl-4-CF3)]P[Ac5c][NMeGly(cPent)][NMeD]-Morpholide; lactam N-11) | 1.5 nM | C (A compound having a KD ratio of 0.1 or more and less than 3 is denoted as C) | C (A compound having a KD ratio of 0.1 or more and less than 3 is denoted as C) | – |
| CCCN1C(=O)CN(C)C(=O)CN(CC)C(=O)[C@H]([C@@H](C)CC)NC(=O)[C@H](CC(C)C)N(C)C(=O)C[C@@H](C(=O)N2CCOCC2)N(C)C(=O)[C@H](C2CCCC2)N(C)C(=O)C2(CCCC2)NC(=O)[C@@H]2C[C@H](C)CN2C(=O)[C@H](CCc2ccc(C(F)(F)F)c(Cl)c2)NC(=O)CN(C)C(=O)[C@@H]1Cc1ccc(C(F)(F)F)cc1 [PP0451] ([NMeL]I[NEtG][Sar][NPrPhe(4-CF3)][Sar][hPhe(3-Cl-4-CF3)][Pro(4S-Me)][Ac5c][NMeGly(cPent)][NMeD]-Morpholide; lactam N-11) | 0.75 nM | – | – | – |
| CCCN1C(=O)[C@@H]2CCN2C(=O)[C@H](C)N(C)C(=O)[C@H]([C@@H](C)CC)NC(=O)[C@H](CC(C)C)N(C)C(=O)C[C@@H](C(=O)N2CCOCC2)N(C)C(=O)[C@H](C2CCCC2)N(C)C(=O)C2(CCCC2)NC(=O)[C@@H]2C[C@H](C)CN2C(=O)[C@H](CCc2ccc(C(F)(F)F)c(Cl)c2)NC(=O)CN(C)C(=O)[C@@H]1Cc1ccc(C(F)(F)F)cc1 [PP0455] ([NMeL]I[NMeA][Aze][NPrPhe(4-CF3)][Sar][hPhe(3-Cl-4-CF3)][Pro(4S-Me)][Ac5c][NMeGly(cPent)][NMeD]-Morpholide; lactam N-11) | 0.18 nM | – | – | – |
| CC[C@H](C)[C@@H]1NC(=O)[C@H](CC(C)C)N(C)C(=O)C[C@@H](C(=O)N2CCOCC2)N(C)C(=O)[C@H](C2CCCC2)NC(=O)C2(CCCC2)NC(=O)[C@@H]2CCCN2C(=O)[C@H](CCc2cc(F)c(C(F)(F)F)c(F)c2)NC(=O)CN(C)C(=O)[C@H](Cc2ccc(C(F)(F)F)cc2)N2CCCCC[C@@H](C2=O)N(C)C(=O)CN(C)C1=O [PP0478] | 400 nM | – | – | – |
| CCO[C@@H]1C[C@H]2C(=O)NC3(CCC3)C(=O)N(C)[C@@H](C(CC)CC)C(=O)N(C)[C@H](C)CC(=O)N(C)[C@@H](CC3CCCC3)C(=O)N[C@@H]([C@@H](C)CC)C(=O)N(C)CC(=O)N(C)[C@H]3C/C=C\CCN(C3=O)[C@@H](Cc3ccc(F)cc3)C(=O)N(C)CC(=O)N[C@@H](CCc3cc(F)c(C(F)(F)F)c(F)c3)C(=O)N2C1 [PP1523] | – | – | – | Kd [1, 5]: 4.1 nM |
| CCO[C@@H]1C[C@H]2C(=O)NC3(CCC3)C(=O)N(C)[C@@H](C(CC)CC)C(=O)N3CCC[C@@H]3CC(=O)N(C)[C@@H](CC)C(=O)N[C@@H]([C@@H](C)CC)C(=O)N(C)CC(=O)N(C)[C@H]3C/C=C\CCN(C3=O)[C@@H](Cc3ccc(C(F)(F)F)cc3)C(=O)N(C)CC(=O)N[C@@H](CCc3cc(F)c(C(F)(F)F)c(F)c3)C(=O)N2C1 [PP1607] | – | – | – | Kd [1, 5]: 0.57 nM; HRAS/KRAS (ratio of KD value for HRAS to KD value for KRAS) ([2]; KD ratio class): A (a compound having 10 or more and less than 20 is denoted as A) |
| CCC[C@H]1C(=O)N[C@@H]([C@@H](C)CC)C(=O)N(C)CC(=O)N(C)[C@H]2C/C=C\CCN(C2=O)[C@@H](Cc2ccc(C)cc2)C(=O)N(C)CC(=O)N[C@@H](CCc2ccc(Cl)c(OC)c2)C(=O)N2C[C@H](OCC)C[C@H]2C(=O)NC2(CC(C)(C)C2)C(=O)N(C)[C@@H](C(CC)CC)C(=O)N(C)[C@H](C(=O)N(C)C)CC(=O)N1C [PP2791] | 1.9 nM | – | – | HRAS/KRAS (ratio of KD value with respect to GDP-bound HRAS wild-type protein to KD value with respect to KRAS) ([2]; SPR KD ratio HRAS/KRAS, class symbols): A (a compound having 10 or more and less than 20 is denoted as A) |
| CCO[C@@H]1C[C@H]2C(=O)NC3(CC(C)(C)C3)C(=O)N(C)[C@@H](C(CC)CC)C(=O)N(C)[C@H](C(=O)N3CCCCC3)CC(=O)N(C)[C@H]3CCC/C=C/c4ccc(cc4)C[C@@H](C(=O)N(C)CC(=O)N[C@@H](CCc4cc(F)c(C(F)(F)F)c(F)c4)C(=O)N2C1)N1CC/C=C\C[C@@H](C1=O)N(C)C(=O)CN(C)C(=O)[C@H]([C@@H](C)CC)NC3=O [PP2952] | 0.79 nM | – | – | – |
| CCO[C@@H]1C[C@H]2C(=O)NC3(CC(C)(C)C3)C(=O)N(C)[C@@H](C(CC)CC)C(=O)N(C)[C@H](C(=O)N(C)C)CC(=O)N(C)[C@H]3CCCC/C=C/c4ccc(cc4)C[C@@H](C(=O)N(C)CC(=O)N[C@@H](CCc4cc(F)c(C(F)(F)F)c(F)c4)C(=O)N2C1)N1CC/C=C\C[C@@H](C1=O)N(C)C(=O)CN(C)C(=O)[C@H]([C@@H](C)CC)NC3=O [PP3044] | – | – | – | Kd ([1]; SPR, Single Cycle Kinetics): 0.052 nM |
| CCO[C@@H]1C[C@H]2C(=O)NC3(CCC3)C(=O)N(C)[C@@H](C3CCCC3)C(=O)N(C)[C@H](C(=O)N3CCCC3)CC(=O)N(C)[C@H]3CCCCC/C=C/c4ccc(cc4)C[C@@H](C(=O)N(C)CC(=O)N[C@@H](CCc4ccc(Cl)c(Cl)c4)C(=O)N2C1)N1CC/C=C\C[C@@H](C1=O)N(C)C(=O)CN(C)C(=O)[C@H]([C@@H](C)CC)NC3=O [PP3049] | – | – | – | Kd ([1]; SPR, Single Cycle Kinetics): 0.2 nM |
| CCO[C@@H]1C[C@H]2C(=O)NC3(CCC3)C(=O)N(C)[C@@H](C(CC)CC)C(=O)N(C)[C@H](C(=O)N3CCCCC3)CC(=O)N(C)[C@H]3CCCCC/C=C/c4ccc(cc4)C[C@@H](C(=O)N(C)CC(=O)N[C@@H](CCc4ccc(Cl)c(Cl)c4)C(=O)N2C1)N1CC/C=C\C[C@@H](C1=O)N(C)C(=O)CN(C)C(=O)[C@H]([C@@H](C)CC)NC3=O [PP3051] | – | – | – | Kd ([1]; SPR, Single Cycle Kinetics): 0.75 nM |
| CCO[C@@H]1C[C@H]2C(=O)NC3(CC(C)(C)C3)C(=O)N(C)[C@@H](C3CCCC3)C(=O)N(C)[C@H](C(=O)N(C)C)CC(=O)N(C)[C@H]3CCCCCCc4ccc(cc4)C[C@@H](C(=O)N(C)CC(=O)N[C@@H](CCc4ccc(C(F)(F)F)c(OC)c4)C(=O)N2C1)N1CC/C=C\C[C@@H](C1=O)N(C)C(=O)CN(C1CC1)C(=O)[C@H]([C@@H](C)CC)NC3=O [PP3070] | – | B (a compound having 3 or more and less than 10 is denoted as B) | – | Kd ([1]; SPR, Single Cycle Kinetics): 0.17 nM |
